Measurements: ChEMBL document CHEMBL1121431, “Preparation and biological evaluation of 2-azaergolines” (1980)

Assays:
Type in all cases: functional
Mus musculus [1] = test: Total jumps of mice was measured at 10 mg/kg dose.
Mus musculus [2] = test: Total jumps of mice was measured at 3 mg/kg dose.
Mus musculus [3] = test: Percentage inhibition of jumping was measured at 10 mg/kg dose.
Mus musculus [4] = test: Percentage inhibition of jumping was measured at 3 mg/kg dose.
Mus musculus [5] = test: Mean jumps/mouse was measured at 10 mg/kg dose.
Mus musculus [6] = test: Mean jumps/mouse was measured at 3 mg/kg dose.

For `CSCC1CC2c3cccc4[nH]nc(c34)CC2N(C)C1` (stereo unspecified), the Activity (Mus musculus [1]) was 6096, the Activity (Mus musculus [2]) was 5113 and the inhibition in vivo at 10 mg/kg (Mus musculus [3]) was 49.6%. For the same compound, the inhibition in vivo at 3 mg/kg (Mus musculus [4]) was 47.9%, the Activity (Mus musculus [5]) was 508 and the Activity (Mus musculus [6]) was 426.
